Experimental data published in patent US20050032822A1, “Dithiocarbamate derivatives and their use as antibacterial agents” (priority 2001, published 2005).
Values after ≈ are worked out from the molar mass of the structure shown.

How the values were obtained:
Format in all cases: cell-based
Conditions in all cases: Mueller-Hinton broth
[1] = system: multiresistent staphylococci (MRSA) strain 134/93; assay: MIC, micro broth dilution, MRSA 134/93
[2] = system: multiresistent staphylococci (MRSA) strain 994/93; assay: MIC, micro broth dilution, MRSA 994/93
[3] = system: Mycobacterium smegmatis SG 987; assay: MIC, micro broth dilution, M. smegmatis SG 987
M aureum SB66 = assay: MIC, micro broth dilution, M. aureum SB66
M. vaccae IMET 1010670 = assay: MIC, micro broth dilution, M. vaccae IMET 10670
M. fortuitum B = assay: MIC, micro broth dilution, M. fortuitum B

Row | Compound | minimal inhibitory concentrations MIC, 134/93 [1] [µg/mL] | minimal inhibitory concentrations MIC, 994/93 [2] [µg/mL] | minimal inhibitory concentrations MIC, SG 987 [3] [µg/mL] | minimal inhibitory concentrations MIC, SB 66 (M aureum SB66) [µg/mL] | minimal inhibitory concentrations MIC, 10670 (M. vaccae IMET 1010670) [µg/mL] | minimal inhibitory concentrations MIC, M. fort. (M. fortuitum B) [µg/mL]
1 | 4-isopropylamino-6-diethyldithiocarbamoyl-5-nitropyrimidine [Subst. Nr. 1] | 3.12 | 25 | 12.5 | 25 | 3.12 | 25
2 | CCN(CC)C(=S)Sc1ncnc(NC2CC2)c1[N+](=O)[O-] [Subst. Nr. 2, 4-cyclopropylamino-6-diethyldithiocarbamoyl-5-nitropyrimidine] | 1.56 (≈ 4.76 µM) | 3.12 (≈ 9.53 µM) | 6.25 (≈ 19.1 µM) | 12.5 (≈ 38.2 µM) | 3.12 (≈ 9.53 µM) | 6.25 (≈ 19.1 µM)
3 | CCN(CC)C(=S)Sc1c(C#N)cc([N+](=O)[O-])cc1[N+](=O)[O-] [Subst. Nr. 3, 3,5-dinitro-2-diethyldithiocarbamoylbenzonitril] | 3.12 (≈ 9.17 µM) | 6.25 (≈ 18.4 µM) | 12.5 (≈ 36.7 µM) | 12.5 (≈ 36.7 µM) | 3.12 (≈ 9.17 µM) | 6.25 (≈ 18.4 µM)
4 | CCN(CC)C(=S)Sc1ncnc(NC)c1[N+](=O)[O-] [Subst. Nr. 4, 4-methylamino-6-diethyldithiocarbamoyl-5-nitropyrimidine] | 0.78 (≈ 2.59 µM) | 1.56 (≈ 5.18 µM) | 6.25 (≈ 20.7 µM) | 6.24 (≈ 20.7 µM) | 1.56 (≈ 5.18 µM) | 6.25 (≈ 20.7 µM)
5 | CCN(CC)C(=S)Sc1ncnc(N(C)O)c1[N+](=O)[O-] [Subst. Nr. 5, 4-methylhydroxyamino-6-diethyldithiocarbamoyl-5-nitropyrimidine] | 1.56 (≈ 4.91 µM) | 3.12 (≈ 9.83 µM) | 6.25 (≈ 19.7 µM) | 12.5 (≈ 39.4 µM) | 3.12 (≈ 9.83 µM) | 6.25 (≈ 19.7 µM)
6 | CCOc1nc(C)nc(SC(=S)N(CC)CC)c1[N+](=O)[O-] [Subst. Nr. 6, 4-ethoxy-2-methyl-6-diethyldithiocarbamoyl-5-nitropyrimidine] | 3.12 (≈ 9.44 µM) | 3.12 (≈ 9.44 µM) | 12.5 (≈ 37.8 µM) | 12.5 (≈ 37.8 µM) | 3.12 (≈ 9.44 µM) | 12.5 (≈ 37.8 µM)
7 | CNc1ncnc(SC(=S)N(C)C)c1[N+](=O)[O-] [Subst. Nr. 7, 4-methylamino-6-dimethyldithiocarbamoyl-5-nitropyrimidine] | 1.56 (≈ 5.71 µM) | 3.12 (≈ 11.4 µM) | 12.5 (≈ 45.7 µM) | 6.25 (≈ 22.9 µM) | 3.12 (≈ 11.4 µM) | 6.25 (≈ 22.9 µM)
8 | CN(C)C(=S)Sc1ncnc(N(C)C)c1[N+](=O)[O-] [Subst. Nr. 8, 4-dimethylamino-6-dimethyldithiocarbamoyl-5-nitropyrimidine] | 3.12 (≈ 10.9 µM) | 6.52 (≈ 22.7 µM) | 12.5 (≈ 43.5 µM) | 6.25 (≈ 21.7 µM) | 3.12 (≈ 10.9 µM) | 12.5 (≈ 43.5 µM)
9 | CN(C)C(=S)Sc1c(C#N)cc([N+](=O)[O-])cc1[N+](=O)[O-] [Subst. Nr. 9, 3,5-dinitro-2-dimethyldithiocarbamoylbenzonitrile] | 0.4 (≈ 1.28 µM) | 0.4 (≈ 1.28 µM) | 3.12 (≈ 9.99 µM) | 1.56 (≈ 4.99 µM) | 3.12 (≈ 9.99 µM) | 6.25 (≈ 20 µM)
10 | CCOc1nc(C)nc(SC(=S)N2CCCC2)c1[N+](=O)[O-] [Subst. Nr. 10, 4-ethoxy-2-methyl-6-tetramethylenedithiocarbamoyl-5-nitropyrimidine] | 3.12 (≈ 9.5 µM) | 0.8 (≈ 2.44 µM) | 12.5 (≈ 38.1 µM) | 25 (≈ 76.1 µM) | 12.5 (≈ 38.1 µM) | 50 (≈ 152 µM)
11 | CCCOc1ncnc(SC(=S)N(C)C)c1[N+](=O)[O-] [Subst. Nr. 11, 4-propoxy-6-dimethyldithiocarbamoyl-5-nitropyrimidine] | 0.8 (≈ 2.65 µM) | 0.8 (≈ 2.65 µM) | 6.25 (≈ 20.7 µM) | 1.56 (≈ 5.16 µM) | 0.8 (≈ 2.65 µM) | 1.56 (≈ 5.16 µM)
12 | CNc1ncnc(SC(=S)N2CCCC2)c1[N+](=O)[O-] [Subst. Nr. 12, 4-methylamino-6-tetramethylenedithiocarbamoyl-5-nitropyrimidine] | – | – | 3.12 (≈ 10.4 µM) | 1.56 (≈ 5.21 µM) | 0.8 (≈ 2.67 µM) | 0.8 (≈ 2.67 µM)
13 | CN(C)c1ncnc(SC(=S)N2CCCC2)c1[N+](=O)[O-] [Subst. Nr. 13, 4-dimethylamino-6-tetramethylenedithiocarbamoyl-5-nitropyrimidine] | 3.12 (≈ 9.96 µM) | 1.56 (≈ 4.98 µM) | 3.12 (≈ 9.96 µM) | 3.12 (≈ 9.96 µM) | 1.56 (≈ 4.98 µM) | 1.56 (≈ 4.98 µM)
14 | COc1ncnc(SC(=S)N(C)C)c1[N+](=O)[O-] [Subst. Nr. 14, 4-methoxy-6-dimethyldithiocarbamoyl-5-nitropyrimidine] | 6.25 (≈ 22.8 µM) | 3.12 (≈ 11.4 µM) | 3.12 (≈ 11.4 µM) | 0.8 (≈ 2.92 µM) | 3.12 (≈ 11.4 µM) | 0.8 (≈ 2.92 µM)
15 | COc1ncnc(SC(=S)N2CCCC2)c1[N+](=O)[O-] [Subst. Nr. 15, 4-methoxy-6-tetramethylenedithiocarbamoyl-5-nitropyrimidine] | 3.12 (≈ 10.4 µM) | 3.12 (≈ 10.4 µM) | 3.12 (≈ 10.4 µM) | 1.56 (≈ 5.19 µM) | 0.8 (≈ 2.66 µM) | 1.56 (≈ 5.19 µM)
16 | NC(=O)c1cc([N+](=O)[O-])cc([N+](=O)[O-])c1SC(=S)N1CCCCCC1 [Subst. Nr. 16, 3,5-dinitro-2-hexamethylenedithiocarbamoylbenzamide] | 6.25 (≈ 16.3 µM) | 12.5 (≈ 32.5 µM) | 6.25 (≈ 16.3 µM) | 6.25 (≈ 16.3 µM) | 0.1 (≈ 0.26 µM) | 0.8 (≈ 2.08 µM)
17 | NC(=O)c1cc([N+](=O)[O-])cc([N+](=O)[O-])c1SC(=S)N1CCCC1 [Subst. Nr. 17, 3,5-dinitro-2-tetramethylenedithiocarbamoylbenzamide] | 25 (≈ 70.1 µM) | 12.5 (≈ 35.1 µM) | 50 (≈ 140 µM) | 6.25 (≈ 17.5 µM) | 0.4 (≈ 1.12 µM) | 6.25 (≈ 17.5 µM)
18 | O=[N+]([O-])c1cnc(SC(=S)N2CCCC2)c([N+](=O)[O-])c1 [Subst. Nr. 18, 3,5-dinitro-2-tetramethylenedithiocarbamoylpyridine] | 1.56 (≈ 4.96 µM) | 12.5 (≈ 39.8 µM) | 6.25 (≈ 19.9 µM) | 3.12 (≈ 9.93 µM) | 3.12 (≈ 9.93 µM) | 3.12 (≈ 9.93 µM)
